pIC50: −log10 of the molar value. “Also recorded” adds a separate entry of the source.

One assay relates to cartilage disks of juvenile rabbits, IL-1 stimulated GAG release. Description: Cartilage culture test (IL-1 induced GAG release). Format: cell-based, rabbit. Particulars: stated in text for the compound of FIG. 1. As for the experimental part:
Cartilage disks (2 mm in diameter) were prepared from the cartilage of juvenile rabbits (3 weeks). Cartilage disks were transferred and cultured individually in the wells of a 48-well tissue culture plate containing DMEM/10% FCS for over 3 days at 37° C. In the night before the test, the medium of DMEM was changed to that not containing FCS. Next morning, IL-1 (4 ng/ml) and a test compound were added to the plate. It is provided that some wells of a plate contain only IL-1 (not containing test compound) and that some wells are vehicle (not containing IL-1 and test compound). After 4 days from the IL-1 addition, the amount of released glycosaminoglycan (GAG) was measured after collecting culture supernatant and cartilage disks.
Quantitation of GAG release was as follows; the weight of the cartilage disk was measured, then 200 μl of a papain digestion buffer solution (1 mM EDTA, 2 mM DTT, 20 mM Tris, (pH 7.0), Papain (300 μg/ml)) was added to each well and the plate containing the digestive solution was incubated for 2 h at 65° C. 50 μl of 100 mM Iodoacetatic acid (pH 7.0) was added for stopping the digestion. The extracts of cartilage are centrifuged at 12000 rpm for 5 min. […] The amount of released GAG in the transferred solution was quantitated by using a proteoglycan & glycosaminoglycan assay kit (Blyscan, Funakoshi Co., Ltd, Tokyo, Japan).
`CC(C)C(NS(=O)(=O)c1ccc(Oc2ccccc2)cc1)C(=O)NO` (centres unmarked) [XXI] showed a GAG value of 87.

A further assay has as its system aggrecanase. Briefly: Aggrecanase inhibitory activity test (western blot with anti ARGSV antibody). The assay is classed as cell-based, rabbit. Particulars: 4 days culture supernatant containing both IL-1 and test compound. As for the experimental part:
To 50 μl of the above 4 days cultured supernatant (not including IL-1 and a test compound, including IL-1 only, including both IL-1 and a test compound) was added a 5 volume solution of 95% EtOH containing 1.3% (w/v) potassium acetate. After the mixed solution was stood at −20° C. for 30 min, the solution was centrifuged to obtain a precipitation. The precipitation was solubilized in 100 μl of 25 mM Tris-hydrochloric acid buffer solution (pH7.6) containing 5 mM calcium chloride*0.15M sodium chloride*0.0025% Brij35. After addition of 5 μl of 250 mM ethylenediaminetetraacetic acid, and 2.5 μl each of 1M sodium acetate (pH6.0) and 1M Tris-hydrochloric acid (pH7.9) to the solution, 2.5 μl of 0.02 units/μl Chondroitinase ABC and 1.0 μl of 0.1 units/μl Keratanase (Both are Seikagaku Kogyo, Japan) were added and the mixture was incubated at 37° C. for 16 h to remove GAG. […]
In the culture supernatant containing only IL-1, the 250 kDa aggrecanase-generated fragment of aggrecan which was recognized by anti N-terminus neoepitope antibody was observed, which was not detected in the supernatant not containing IL-1 and a test compound (XXI). On the other hand, in the culture supernatant containing both IL-1 and a test compound (XXI), the 250 kDa aggrecanase-generated fragment was not detected.
On to `CC(C)C(NS(=O)(=O)c1ccc(Oc2ccccc2)cc1)C(=O)NO` (centres unmarked) [XXI], for which the “250 kDa aggrecanase-generated fragment of aggrecan (new N-terminus ARGSV), western blot” value is reported as “inhibits the production of aggrecanase-generated new N-terminus (ARGSV); also recorded: not detected”.

For a further assay, the target named is T1, MMP-13 (Homo sapiens, UniProt P45452).
T1 construct: catalytic domain (^104Tyr˜^267Gly) was amplified with RT-PCR; His-tag; enterokinase digestion-site; made in house
Briefly: Assay for inhibitory activities on MMP-13. Particulars: catalytic domain, substrate MOCAc-Pro-Leu-Gly-Leu-A2Pr(DNP)-Ala-Arg-NH2; read-out: MMP-13 (IC50μM). The assay is classed as biochemical.
For the compound `CCC(C)[C@H](NS(=O)(=O)c1ccc(-c2ncc(-c3ccc(OC)cc3)s2)cc1)C(=O)O` (some centres unmarked) [Compound A-2], the pIC50 is 8.89.

As to `CC(C)C(NS(=O)(=O)c1ccc(-c2ccc(OC(F)(F)F)cc2)cc1)C(=O)O` (centres unmarked) [Compound E-20], the pIC50 was 7.85.

As to `O=C(O)[C@@H](Cc1ccccc1)NS(=O)(=O)c1ccc(-c2ccc(-n3cccc3)cc2)s1` [Compound F-14], the pIC50 was 7.98.

Consider `O=C(O)[C@@H](Cc1c[nH]c2ccccc12)NS(=O)(=O)c1ccc(-c2ncc(-c3ccc(F)c(F)c3)s2)cc1` [Compound A-14], for which the pIC50 is 8.21.

With `O=C(O)[C@H](NS(=O)(=O)c1ccc(-c2ncc(-c3ccc(Br)cc3)s2)cc1)c1ccccc1` [Compound A-7], the pIC50 was 7.95.

Turning to `CSCC[C@@H](NS(=O)(=O)c1ccc(-c2ncc(-c3ccc(Cl)c(Cl)c3)s2)cc1)C(=O)O` [Compound A-15], the pIC50 is 7.87.

Take `CSc1ccc(-c2ccc(S(=O)(=O)N[C@H](CO)C(=O)O)cc2)cc1` [Compound E-12]: the pIC50 was 7.78.

As to `O=C(O)[C@@H](Cc1ccccc1)NS(=O)(=O)c1ccc(-c2nc(-c3ccc(Cl)cc3)no2)cc1` [Compound D-2], the pIC50 is 6.85.

As to `CCc1ccc(-c2nc(-c3ccc(S(=O)(=O)N[C@@H](C(=O)O)C(C)C)cc3)no2)cc1` [Compound C-1], the pIC50 is 8.00.

Regarding `CCCCc1ccc(-c2ccc(-c3ccc(S(=O)(=O)N[C@@H](C(=O)O)C(C)C)cc3)s2)cc1` [Compound K-2], the pIC50 was 7.94.

Regarding `O=C(O)[C@@H](Cc1ccccc1)NS(=O)(=O)c1ccc(-c2ncc(-c3ccc(Cl)c(Cl)c3)o2)cc1` [Compound B-5], the pIC50 is 7.77.

As for `C[C@H](NS(=O)(=O)c1ccc(-c2ncc(-c3ccc4ccccc4c3)o2)cc1)C(=O)O` [Compound B-2], the pIC50 was 6.12.

In the case of `CSc1ccc(-c2ccc(-c3ccc(S(=O)(=O)N[C@@H](C(=O)O)C(C)C)cc3)s2)cc1` [Compound K-5], the pIC50 was 8.28.

`O=C(O)C[C@@H](NS(=O)(=O)c1ccc(-c2ncc(-c3ccc(Cl)c(Cl)c3)s2)cc1)C(=O)O` [Compound A-16]: the pIC50 is 7.81.

`O=C(O)[C@@H](Cc1ccccc1)NS(=O)(=O)c1ccc(-c2nc(-c3ccc(Cl)c(Cl)c3)no2)cc1` [Compound D-6]: the pIC50 was 6.12.

As for `COc1ccc(-c2ccc(S(=O)(=O)N[C@H](Cc3c[nH]c4ccccc34)C(=O)O)s2)cc1` [Compound F-9], the pIC50 is 8.44.

As for `CSCC[C@H](NS(=O)(=O)c1ccc(-c2ccc(C(C)=O)cc2)s1)C(=O)O` [Compound F-25], the pIC50 is 6.97.

On to `CC(=O)NCCc1ccc(-n2nnc(-c3ccc(S(=O)(=O)N[C@H](Cc4ccccc4)C(=O)O)cc3)n2)cc1` [Compound I-2], for which the pIC50 is 8.00.

Regarding `C=Cc1ccc(-c2ccc(S(=O)(=O)N[C@@H](C(=O)O)C(C)C)s2)cc1` [Compound F-26], the pIC50 was 8.00.

Turning to `CC(C)C[C@@H](NS(=O)(=O)c1ccc(-c2ncc(-c3ccc(Cl)c(Cl)c3)s2)cc1)C(=O)O` [Compound A-24], the pIC50 is 7.32.

Regarding `CCSc1ccc(-c2ccc(S(=O)(=O)NC(Cc3ccccc3)C(=O)O)cc2)cc1` (centres unmarked) [Compound E-16], the pIC50 is 7.85.

For `CC(C)[C@@H](NS(=O)(=O)c1ccc(-c2ccc(-c3ccccc3)cc2)cc1)C(=O)O` [Compound E-24], the pIC50 is 7.62.

For the compound `C[C@H](NS(=O)(=O)c1ccc(-c2ncc(-c3ccc4ccccc4c3)s2)cc1)C(=O)O` [Compound A-13], the pIC50 is 7.72.

On to `CSCC[C@@H](NS(=O)(=O)c1ccc(-c2ccc(SC)cc2)s1)C(=O)O` [Compound F-3], for which the pIC50 is 8.15.

With `CSCC[C@@H](NS(=O)(=O)c1ccc(-c2noc(-c3ccc(C(C)C)cc3)n2)cc1)C(=O)O` [Compound C-6], the pIC50 is 7.74.

Take `CNc1ccc(-c2ccc(S(=O)(=O)N[C@H](Cc3ccccc3)C(=O)O)s2)cc1` [Compound F-12]: the pIC50 was 7.50.

As to `C[C@@H](NS(=O)(=O)c1ccc(-c2ncc(-c3ccc4ccccc4c3)s2)cc1)C(=O)O` [Compound A-12], the pIC50 was 7.92.

Turning to `C#Cc1ccc(C#Cc2ccc(S(=O)(=O)N[C@H](Cc3c[nH]c4ccccc34)C(=O)O)cc2)cc1` [Compound G-2], the pIC50 is 7.82.

As for `CC(C)C[C@H](NS(=O)(=O)c1ccc(-c2ncc(-c3ccc(F)cc3)s2)cc1)C(=O)O` [Compound A-11], the pIC50 is 7.94.

Regarding `CCSc1ccc(-c2ccc(S(=O)(=O)NC(C)C(=O)O)cc2)cc1` (centres unmarked) [Compound E-14], the pIC50 is 7.87.

As to `O=C(O)[C@H](Cc1ccccc1)NS(=O)(=O)c1ccc(-c2noc(-c3ccc4c(c3)OCO4)n2)cc1` [Compound C-8], the pIC50 is 7.31.

As to `O=C(O)[C@@H](Cc1ccccc1)NS(=O)(=O)c1ccc(-c2ncc(-c3ccccc3)s2)s1` [Compound N-7], the pIC50 is 6.94.

Consider `CCSc1ccc(-c2ccc(S(=O)(=O)NC(C(=O)O)C(C)C)cc2)cc1` (centres unmarked) [Compound E-15], for which the pIC50 was 7.71.

Values taken from patent US20050227994A1, “Decomposition inhibitor for extracellular matrix of cartilage” (Shionogi & Co., Ltd., priority 2002, published 2005).
